This experiment addresses T1, human Kv4.3/KChIP2.2 potassium channel (Homo sapiens, UniProt Q9UK17).
T1 construct: expressed in transfected cells
T1 sequence (Q9UK17 1-655): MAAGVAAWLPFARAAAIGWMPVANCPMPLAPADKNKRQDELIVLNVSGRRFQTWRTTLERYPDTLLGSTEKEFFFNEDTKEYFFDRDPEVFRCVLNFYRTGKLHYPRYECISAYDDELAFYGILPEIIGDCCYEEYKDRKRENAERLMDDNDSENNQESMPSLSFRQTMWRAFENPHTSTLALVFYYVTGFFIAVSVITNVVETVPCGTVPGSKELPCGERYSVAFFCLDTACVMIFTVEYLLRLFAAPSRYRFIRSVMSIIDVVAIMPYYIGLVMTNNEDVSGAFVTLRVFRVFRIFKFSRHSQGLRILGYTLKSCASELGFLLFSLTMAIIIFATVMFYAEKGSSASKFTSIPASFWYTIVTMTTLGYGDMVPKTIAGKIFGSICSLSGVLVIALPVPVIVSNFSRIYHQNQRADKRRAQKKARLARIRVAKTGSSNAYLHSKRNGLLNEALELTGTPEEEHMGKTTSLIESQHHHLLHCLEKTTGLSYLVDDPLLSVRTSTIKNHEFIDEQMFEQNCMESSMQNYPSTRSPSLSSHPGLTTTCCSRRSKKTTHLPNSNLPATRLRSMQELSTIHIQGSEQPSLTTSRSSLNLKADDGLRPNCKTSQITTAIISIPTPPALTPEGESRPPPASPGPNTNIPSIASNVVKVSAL
Briefly: Whole cell patch clamp, CHO-K1 cells stably expressing human Kv4.3/KChIP2.2. The conditions noted are these: CHO-K1. The class given is cell-based. On the technique in general: The patch-clamp technique gives a direct electrical read-out from membranes.

Read-outs that look alike come from different tables or passages of the source.

Regarding `Cc1nc(Nc2cccc3ccccc23)sc1C(=O)N[C@H]1CCC[C@@H]1OCc1ccccc1` [Compound 93], the remaining activity at 1 µM (remaining current measured after application of the compound and relative to the blank, read-out: Kv4.3 charge in %) stood at 62%; the remaining activity at 1 µM (remaining peak height measured after application of the compound and relative to the blank, read-out: Kv4.3 peak in %) was 89%.

The record behind these values is patent publication US20080125432A1 (Devgen NV, priority 2004, published 2008).
